According to patent US11524021B2, “Use of ginsenoside M1 for manufacturing medicament for treating oral cancer” (priority 2018, dated 2022):

Tests used:
[1] = test system: human oral cancer cells SAS; assay: Viability of human oral cancer SAS cells, Trypan blue exclusion; format: cell-based; conditions: 5˜20 μg/ml, 24 h
Procedure: Human oral cancer cell line SAS cells (FIG. 1A) or OECM-1 cells (FIG. 1B) were incubated for 24 h with ginsenoside M1 (5˜20 μg/ml), ginsenoside Rh2 (5˜20 μg/ml) or vehicle (0.1% DMSO). The live cell numbers were counted by Trypan blue exclusion method. The data were expressed as mean±SD; n=3. *, ** and *** indicate a significant difference at the level of p<0.05, p<0.01 and p<0.001, respectively, compared to vehicle-control cells. (One-way ANOVA with Dunnett's multiple comparisons test).
Plate 5×10^5 human oral cancer cells SAS per 6-cm dish in 2 ml of culture medium and were grown overnight at 37° C. in a 5% CO2 incubator. The cells were incubated for 24 h with ginsenoside M1 (5˜20 μg/ml), ginsenoside Rh2 (5˜20 μg/ml) or vehicle. Each group contains a final DMSO concentration of 0.1%. Thereafter, the cell numbers were counted by Trypan blue exclusion method. […] The data were expressed as mean±SD; n=3. *, ** and *** indicate a significant difference at the level of p<0.05, p<0.01 and p<0.001, respectively, compared to vehicle-control cells. (One-way ANOVA with Dunnett's multiple comparisons test).

[2] = test system: human oral cancer SAS cells; assay: Caspase-9 and caspase-3 activation, degradation of pro-caspases by Western blotting; format: cell-based; conditions: 10˜20 μg/ml, 24 h
[3] = test system: human oral cancer OECM-1 cells; assay: Migration of OECM-1 cells, wound healing assay; format: cell-based; conditions: 18 h
Procedure: FIGS. 5A-5B show ginsenoside M1 reduced the migration ability of human oral cancer cells. Human oral cancer cell line SAS cells (FIG. 5A) or OECM-1 cells (FIG. 5B) were cultured in 6-cm dish until the cells reached 100% confluence forming a monolayer. A clear zone was created by scratching using a sterile 200-μl pipette tip. The cells were incubated for 24 h (SAS cells) or 18 h (OECM-1 cells) with ginsenoside M1 (5˜10 μg/ml) or (0.1% DMSO). The migration distance was measured and compared to the vehicle-control cells. The data were expressed as mean±SD; n=3. *** indicates a significant difference at the level of p<0.001, compared to vehicle-control cells. (One-way ANOVA with Dunnett's multiple comparisons test).
The cell migration ability was measured by wound healing assay. Plate 5×10^6 human oral cancer SAS cells or OECM-1 cells per 6-cm dish in 2 ml of culture medium and were grown overnight at 37° C. in a 5% CO2 incubator until the cells reached 100% confluence forming a monolayer. We used a sterile 200-μl pipette tip to create a scratched clear zone on the culture dish, and the wounds photographed by a phase contrast microscope as the baseline. […] The data were expressed as mean±SD; n=3. *** indicates a significant difference at the level of p<0.001, compared to vehicle-control cells. […]

[4] = test system: human oral cancer cells SAS xenografts; assay: Tumor growth in human oral cancer SAS xenograft mice; format: in vivo, BALB/c nude (nu/nu) mice; conditions: 5 successive days
Procedure: FIGS. 6A-6C show oral administration of ginsenoside M1 reduced human oral cancer growth in mice. Human oral cancer cell line SAS cells Xenografts mice with tumor size around 40˜60 mm^3 were given a daily oral administration of either ginsenoside M1 (30-90 mg/kg) or vehicle for 5 successive days. (FIG. 6A) The tumor volume was determined by measurement of the length (L) and width (W) of the tumor and calculated as tumor volume (mm3)=(L×W^2)/2. (FIG. 6B) The tumor weight was measured after the mice were scarified. (FIG. 6C) The body weight of mice was recorded. The data were expressed as mean±SD; n=6. ** and *** indicate a significant difference at the level of p<0.01 and p<0.001, respectively, compared to vehicle-control mice. (One-way ANOVA with Dunnett's multiple comparisons test).
FIGS. 7A-7C show subcutaneous (SC) injection of ginsenoside M1 reduced human oral cancer growth in mice. Human oral cancer cell line SAS cells Xenografts mice with tumor size around 40˜60 mm^3 were given a daily SC injection of either ginsenoside M1 (20 mg/kg) or vehicle for 5 successive days. (FIG. 7A) The tumor volume was determined by measurement of the length (L) and width (W) of the tumor and calculated as tumor volume (mm3)=(L×W^2)/2. (FIG. 7B) The tumor weight was measured after the mice were scarified. (FIG. 7C) The body weight of mice was recorded. The data were expressed as mean±SD; n=6. ** indicates a significant difference at the level of p<0.01, compared to vehicle-control mice. (One-way ANOVA with Dunnett's multiple comparisons test).
To evaluate the anti-cancer activity of ginsenoside M1 in vivo, human oral cancer xenografts were used. Six-week-old male congenital athymic BALB/c nude (nu/nu) mice were purchased from BioLASCO Taiwan Co., Ltd (Ilan, Taiwan), and housed in a room under controlled temperature (23±3° C.) and relative humidity (50±5%). Animal experiments were performed with the approval of the Institutional Animal Care and Use Committee of the National Ilan University (approval number: No. 106-13) according to the NIH Guide for the Care and Use of Laboratory Animals. Xenografts mice were established by subcutaneous (SC) injection of 2×10^6 human oral cancer cells SAS (in 75 μl PBS+75 μl Matrigel) on the backs of the nude mice. After the tumor has reached about 40˜60 mm^3 in size, the mice were randomized into six groups (six mice each): (1) oral vehicle control; (2) oral 30 mg/kg ginsenoside M1; (3) oral 60 mg/kg ginsenoside M1; (4) oral 90 mg/kg ginsenoside M1; (5) SC vehicle control; (6) SC 20 mg/kg ginsenoside M1. The mice were given a daily oral administration or SC injection of either vehicle or ginsenoside M1 for 5 successive days. The mice were scarified at 24 h after received the last dose of ginsenoside M1 or vehicle. The tumor volume (TV) was determined by measurement of the length (L) and width (W) of the tumor. The TV on day n (TVn) was calculated as TV (mm3)=(L×W^2)/2. The relative tumor volume on day n (RTVn) versus day 0 was expressed according to the following formula: RTVn=TVn/TV0. […] The data were expressed as mean±SD; n=6. ** and *** indicate a significant difference at the level of p<0.01 and p<0.001, respectively, compared to vehicle-control mice. (One-way ANOVA with Dunnett's multiple comparisons test).

CC(C)=CCC[C@](C)(O[C@@H]1OC(CO)[C@@H](O)[C@@H](O)C1O)[C@H]1CC[C@]2(C)C1[C@H](O)CC1[C@@]3(C)CC[C@H](O)C(C)(C)C3CC[C@]12C (stereo partly drawn) [ginsenoside M1, 20-O-β-D-glucopyranosyl-20(S)-protopanaxadiol]
cell numbers of human oral cancer SAS cells [1]: dose-dependently inhibited
precursor of caspase-3 (pro-caspase-3) level [2]: decrease of the precursors of caspase-3 and caspase-9 in a dose-dependent manner
precursor of caspase-9 (pro-caspase-9) level [2]: decrease of the precursors of caspase-3 and caspase-9 in a dose-dependent manner
migration ability of OECM-1 cells ([3]; 5 μg/ml): significantly inhibited
migration ability of OECM-1 cells ([3]; 10 μg/ml): significantly inhibited
tumor size compared to vehicle control group ([4]; SC injection 20 mg/kg daily): significantly reduced
tumor weight compared to vehicle control group ([4]; SC injection 20 mg/kg daily): significantly reduced
tumor size compared to vehicle control group ([4]; oral 30 mg/kg daily): did not significant reduce
tumor weight compared to vehicle control group ([4]; oral 30 mg/kg daily): did not significant reduce
tumor size compared to vehicle control group ([4]; oral 60 mg/kg daily): did not significant reduce
tumor weight compared to vehicle control group ([4]; oral 60 mg/kg daily): did not significant reduce
tumor size compared to vehicle control group ([4]; oral 90 mg/kg daily): significantly reduced
